Reference: publication PMC9945734 (BMC Medicine, 2023)

Tested on: PC-3-KQ and PC-3-KR cells
Experiment: RNA-sequencing and differential gene expression
Assay type: cell-based, human
Conditions: for logFC: KQ-Control vs KQ-NTZ

CC(=O)Oc1ccccc1C(=O)Nc1ncc([N+](=O)[O-])s1 [Nitazoxanide]
change of NTZ treatment (gene ANKRD36C): down | logFC (gene ANKRD37): 0.9125 | logFC (gene ANXA8): 0.7906 | change of NTZ treatment (gene ANXA8L1): down | change of NTZ treatment (gene ARG2): up | logFC (gene ARG2): 2.138 | change of NTZ treatment (gene ARL10): down | change of NTZ treatment (gene ARSK): up | logFC (gene ARSK): 0.7653 | change of NTZ treatment (gene ASB2): down | logFC (gene ATP2A3): 1.284 | change of NTZ treatment (gene BRINP2): down | change of NTZ treatment (gene BTBD11): down | change of NTZ treatment (gene BTN3A3): up | logFC (gene CAPN12): 0.767 | change of NTZ treatment (gene CAPSL): down | logFC (gene CCNA1): 0.9046 | change of NTZ treatment (gene CEP19): down | logFC (gene CFB): 0.9221 | change of NTZ treatment (gene CNTNAP3B): down | logFC (gene COL4A3): 2.258 | logFC (gene COL4A4): 0.8129 | change of NTZ treatment (gene CSF1R): up | change of NTZ treatment (gene CXCL5): down | change of NTZ treatment (gene CYP1B1): up | change of NTZ treatment (gene CYP2E1): up | change of NTZ treatment (gene CYP8B1): up | logFC (gene CYP8B1): 1.238 | change of NTZ treatment (gene CYSTM1): up | logFC (gene CYSTM1): 0.6246 | change of NTZ treatment (gene DEPTOR): down | change of NTZ treatment (gene DISP1): up | logFC (gene DISP1): 0.6346 | change of NTZ treatment (gene DMPK): up | logFC (gene DMPK): 0.6319 | change of NTZ treatment (gene DRP2): down | change of NTZ treatment (gene ECM2): down | change of NTZ treatment (gene ESPN): up | logFC (gene FA2H): 1.574 | change of NTZ treatment (gene FAM83D): down | logFC (gene FAM178B): 1.11 | change of NTZ treatment (gene FAM186B): down | change of NTZ treatment (gene FANCI): down | change of NTZ treatment (gene FANCL): down | change of NTZ treatment (gene FCGBP): down | logFC (gene FER1L6): 0.6222 | logFC (gene FIBCD1): 1.28 | change of NTZ treatment (gene FLI1): down | change of NTZ treatment (gene FLRT1): down | change of NTZ treatment (gene FRY): up | logFC (gene FRY): 1.204 | change of NTZ treatment (gene FSD2): down | logFC (gene FTH1): 1.218 | logFC (gene FUT3): 0.7626 | logFC (gene FXYD3): 0.8317 | change of NTZ treatment (gene FZD4): down | logFC (gene GALNT12): 0.8862 | change of NTZ treatment (gene GCNT3): up | logFC (gene GCNT3): 2.701 | logFC (gene GDPD3): 1.109 | change of NTZ treatment (gene HAS3): down | change of NTZ treatment (gene HSPB8): up | logFC (gene HSPB8): 1.784 | change of NTZ treatment (gene IFITM10): up | change of NTZ treatment (gene IGDCC4): up | logFC (gene IGDCC4): 1.493 | change of NTZ treatment (gene IGF2BP1): down | change of NTZ treatment (gene IL1RN): up | logFC (gene IL36RN): 0.6398 | change of NTZ treatment (gene INHBA): down | change of NTZ treatment (gene KDELR2): up | logFC (gene KDELR2): 0.621 | logFC (gene KIAA0319): 2.322 | change of NTZ treatment (gene KIAA1755): down | logFC (gene KLHDC7B): 1.286 | logFC (gene LOC105374299): 1.732 | change of NTZ treatment (gene LONRF2): down | logFC (gene LRRK1): 0.8715 | change of NTZ treatment (gene LTB): down | change of NTZ treatment (gene MAP2): up | logFC (gene MAP2): 0.8904 | change of NTZ treatment (gene MCM4): down | change of NTZ treatment (gene MEF2C): up | change of NTZ treatment (gene MEOX1): down | change of NTZ treatment (gene METRNL): up | logFC (gene MFSD2A): 0.6152 | logFC (gene MINAR1): 1.165 | change of NTZ treatment (gene MMP9): down | change of NTZ treatment (gene MROH8): down | change of NTZ treatment (gene MUC4): up | logFC (gene MUC4): 1.575 | logFC (gene MVP): 0.7778 | change of NTZ treatment (gene MYH7B): down | change of NTZ treatment (gene NAV1): up | logFC (gene NAV1): 1.226 | logFC (gene NECTIN4): 1.852 | change of NTZ treatment (gene NKD1): down | logFC (gene NLRC5): 0.8508 | change of NTZ treatment (gene NR4A2): up | change of NTZ treatment (gene NT5E): up | logFC (gene NT5E): 0.5964 | change of NTZ treatment (gene PCDH18): down | logFC (gene PDGFA): 0.7622 | change of NTZ treatment (gene PDZK1): up | logFC (gene PDZK1): 0.8579 | change of NTZ treatment (gene PGAM4): down | change of NTZ treatment (gene PHOSPHO2): down | change of NTZ treatment (gene PIANP): down | logFC (gene PKIA): 0.8539 | change of NTZ treatment (gene PLEKHG1): up | logFC (gene PRKAR1B): 0.8008 | change of NTZ treatment (gene PRKDC): down | change of NTZ treatment (gene PROS1): up | logFC (gene PROS1): 0.9134 | change of NTZ treatment (gene PRR16): down | change of NTZ treatment (gene PRRT4): down | change of NTZ treatment (gene RBL1): down | logFC (gene RMDN2): 0.9051 | change of NTZ treatment (gene RND1): up | change of NTZ treatment (gene RP1L1): down | change of NTZ treatment (gene S100A6): up | logFC (gene S100A6): 0.6427 | logFC (gene SAT1): 0.7952 | logFC (gene SDCBP2): 1.238 | change of NTZ treatment (gene SERPINA5): down | change of NTZ treatment (gene SERPINB3): down | change of NTZ treatment (gene SERPINB4): down | change of NTZ treatment (gene SERPIND1): down | change of NTZ treatment (gene SGK3): up | change of NTZ treatment (gene SHISA3): down | change of NTZ treatment (gene SLC41A2): up | logFC (gene SLC41A2): 0.8444 | change of NTZ treatment (gene SLFN11): up | change of NTZ treatment (gene SMCO4): up | change of NTZ treatment (gene SPOCK2): up | logFC (gene SPOCK2): 1.756 | logFC (gene SRPX): 0.5983 | logFC (gene STK32A): 1.274 | logFC (gene SYN3): 1.227 | logFC (gene TBX2): 0.6055 | change of NTZ treatment (gene TCN1): down | change of NTZ treatment (gene TJP3): up | logFC (gene TJP3): 0.6134 | change of NTZ treatment (gene TMEM140): up | change of NTZ treatment (gene TMEM269): up | logFC (gene TMEM269): 0.7715 | logFC (gene TMOD1): 1.793 | logFC (gene TMPRSS2): 1.205 | change of NTZ treatment (gene TNFRSF6B): down | change of NTZ treatment (gene TNFRSF11B): down | logFC (gene TNFSF14): 1.643 | change of NTZ treatment (gene TRIM31): up | logFC (gene TRIM31): 1.207 | change of NTZ treatment (gene TTC9): up | change of NTZ treatment (gene TTC30B): down | logFC (gene UGT2B7): 1.608 | logFC (gene WHRN): 0.869 | logFC (gene WNT4): 1.78 | change of NTZ treatment (gene WNT9A): up | change of NTZ treatment (gene ZNF302): down
